Earlier results as cited in patent US7276228B2, “Methods for treating hematological disorders through inhibition of DNA methylation and histone deacetylase” (SuperGen, Inc., priority 2001, dated 2007).
Blank lines part the entries; values can stand above or below the compound they belong to.

What was measured:
[1] = test system: HDAC; conditions: for concentration at which HDAC activity is inhibited: literature statements
[2] = test system: DNA methyltransferase; conditions: decitabine replacing 5-methylcytosine at a site of methylation in DNA; Juttermann et al. (1994)
[3] = test system: mammalian HDAC; conditions: Yoshida et al. (1990)

Compound: O=C(/C=C/c1cccc(C(=O)NO)c1)NO [CBHA, m-carboxy-cinnamic acid bishydroxamic acid]
- concentration at which HDAC is inhibited ([1]; in vitro or in vivo, Glick et al. (1999)): micromolar concentration or lower

Compound: C/C=C1\NC(=O)[C@H]2CSSCC/C=C/[C@H](CC(=O)N[C@H](C(C)C)C(=O)N2)OC(=O)[C@H](C(C)C)NC1=O [FR901228]
- concentration at which HDAC activity is inhibited [1]: micromolar concentrations

Compound: depudecin
- concentration at which HDAC activity is inhibited [1]: micromolar concentrations

- inactivation of DNA methyltransferase [2]: irreversible inactivation
Compound: Nc1ncn([C@H]2C[C@H](O)[C@@H](CO)O2)c(=O)n1 [decitabine, 5-aza-2′-deoxycytidine]

Compound: CC(/C=C/C(=O)NO)=C\[C@@H](C)C(=O)c1ccc(N(C)C)cc1 [TSA, trichostatin A]
- inhibition of mammalian HDAC [3]: potent inhibitor
